Activity calls are given as the source filed them.
How the values were obtained:
Kallikrein-7 = Kallikrein-7 (Homo sapiens, UniProt P49862); test: Fluorescence Intensity-based biochemical primary high throughput dose response assay to identify activators of kallikrein-7 (K7) zymogen.
Aminopeptidase N = molecular target: T1, Aminopeptidase N (Plasmodium falciparum FcB1/Columbia, UniProt O96935); test: P. falciparum M1AAP inhibitors, biochemical, fluorogenic H-Leu-NHMec substrate, 1536-well (AID 1445); design: species or system Plasmodium falciparum 3D7, 3D7
T1 sequence (O96935 whole entry): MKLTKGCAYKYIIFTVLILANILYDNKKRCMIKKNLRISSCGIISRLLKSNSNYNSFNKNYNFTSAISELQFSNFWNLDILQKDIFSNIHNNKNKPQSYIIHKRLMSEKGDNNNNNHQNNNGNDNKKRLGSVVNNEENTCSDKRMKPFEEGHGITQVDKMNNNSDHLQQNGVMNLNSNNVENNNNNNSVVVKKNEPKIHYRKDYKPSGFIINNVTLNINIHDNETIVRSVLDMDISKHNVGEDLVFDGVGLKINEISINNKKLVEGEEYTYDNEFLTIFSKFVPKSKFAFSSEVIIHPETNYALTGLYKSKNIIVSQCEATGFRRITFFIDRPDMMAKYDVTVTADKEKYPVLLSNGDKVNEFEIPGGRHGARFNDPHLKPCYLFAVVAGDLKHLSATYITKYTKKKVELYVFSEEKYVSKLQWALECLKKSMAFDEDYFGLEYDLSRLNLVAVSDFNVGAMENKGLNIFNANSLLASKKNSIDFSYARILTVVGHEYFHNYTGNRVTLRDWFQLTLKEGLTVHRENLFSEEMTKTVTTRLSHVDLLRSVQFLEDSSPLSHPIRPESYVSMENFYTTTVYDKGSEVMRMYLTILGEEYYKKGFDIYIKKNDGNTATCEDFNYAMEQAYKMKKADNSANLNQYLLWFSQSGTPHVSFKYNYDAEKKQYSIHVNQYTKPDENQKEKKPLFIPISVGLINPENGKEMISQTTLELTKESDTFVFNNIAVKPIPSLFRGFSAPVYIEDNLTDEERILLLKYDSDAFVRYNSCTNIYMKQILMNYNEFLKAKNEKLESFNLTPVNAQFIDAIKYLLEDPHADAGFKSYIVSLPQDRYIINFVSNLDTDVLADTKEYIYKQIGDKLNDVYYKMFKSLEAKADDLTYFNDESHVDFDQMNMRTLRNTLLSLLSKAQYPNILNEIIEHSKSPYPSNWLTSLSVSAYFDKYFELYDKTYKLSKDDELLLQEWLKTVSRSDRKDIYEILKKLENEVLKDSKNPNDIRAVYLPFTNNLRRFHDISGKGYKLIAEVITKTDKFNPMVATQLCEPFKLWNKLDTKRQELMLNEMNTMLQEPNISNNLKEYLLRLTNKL

Beta-galactosidase = Beta-galactosidase (Escherichia coli, UniProt Q8VNN2); test: beta-galactosidase enzyme inhibitors and activators, dose response, artefact control for CCR6 antagonist project, biochemical, E. coli enzyme, set 3 (AID 504712); format: functional
[1] = molecular target: T2, Probable nicotinate-nucleotide adenylyltransferase (Staphylococcus aureus (strain N315), UniProt P65502); format: functional, Staphylococcus aureus subsp. aureus N315;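 as to IC50 Mean: confirmatory dose-response retesting of NadD inhibitor hits first found in an ultra-high-throughput screen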
[2] = molecular target: T2, Probable nicotinate-nucleotide adenylyltransferase; format: functional, Staphylococcus aureus subsp. aureus N315; details: read-out: IC50_Mean
Caspase-6 = molecular target: T3, Caspase-6 (Homo sapiens, UniProt P55212); test: human caspase-6 inhibitors, dose response, biochemical, VEID-R110 fluorescence, cherry-pick (AID 720632)
T3 sequence (P55212 whole entry): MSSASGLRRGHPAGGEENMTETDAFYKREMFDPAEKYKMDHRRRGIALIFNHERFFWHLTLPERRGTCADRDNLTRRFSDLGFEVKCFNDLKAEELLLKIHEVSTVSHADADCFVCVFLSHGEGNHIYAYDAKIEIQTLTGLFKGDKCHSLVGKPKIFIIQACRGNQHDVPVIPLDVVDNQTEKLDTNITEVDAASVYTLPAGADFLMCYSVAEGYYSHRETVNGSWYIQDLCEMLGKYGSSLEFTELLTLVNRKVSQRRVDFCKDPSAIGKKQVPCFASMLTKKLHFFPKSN

[3] = A cytotoxicity screen of small molecule inhibitors of the PhoP region in Salmonella typhi identified in the primary screen. [Related pubchem assays: 1850, 1864, 1985 ]; format: functional
[4] = P. falciparum 3D7-ScDHODH growth inhibitors, dose response, SYBR Green, dry powder samples (AID 1159570); format: functional, cell-based;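 also: parasite growth measured after 72 hours of compound exposure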
[5] = HepG2 cell cytotoxicity, dose response, cytotoxicity control, plate reader, dry powder samples (AID 1159569); format: functional, cell-based;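 also: inhibitor potency with signal falling toward the positive control level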
[6] = P. falciparum Dd2 growth inhibitors, dose response, SYBR Green, cherry-picked samples (AID 1159567); format: functional, cell-based
[7] = P. falciparum Dd2 growth inhibitors, dose response, SYBR Green, dry powder samples (AID 1159566); format: functional, cell-based;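 also: potency for growth inhibition with lower SYBR green DNA signal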
[8] = P. falciparum ATP4 D1247Y mutant growth inhibitors, dose response, NITD609-resistant line, SYBR Green, dry powder (AID 1159571); format: functional, cell-based;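 also: parasites synchronized at ring stage by sorbitol before testing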
Mucolipin-3 = molecular target: T4, Mucolipin-3 (Homo sapiens, UniProt Q8TDD5); test: Dose response cell-based high-throughput screening assay for agonists of the transient receptor potential channel ML3 (TRPML3). [Related pubchem assays: 1526, 1424, 1448 ]; format: functional
T4 sequence (Q8TDD5 whole entry): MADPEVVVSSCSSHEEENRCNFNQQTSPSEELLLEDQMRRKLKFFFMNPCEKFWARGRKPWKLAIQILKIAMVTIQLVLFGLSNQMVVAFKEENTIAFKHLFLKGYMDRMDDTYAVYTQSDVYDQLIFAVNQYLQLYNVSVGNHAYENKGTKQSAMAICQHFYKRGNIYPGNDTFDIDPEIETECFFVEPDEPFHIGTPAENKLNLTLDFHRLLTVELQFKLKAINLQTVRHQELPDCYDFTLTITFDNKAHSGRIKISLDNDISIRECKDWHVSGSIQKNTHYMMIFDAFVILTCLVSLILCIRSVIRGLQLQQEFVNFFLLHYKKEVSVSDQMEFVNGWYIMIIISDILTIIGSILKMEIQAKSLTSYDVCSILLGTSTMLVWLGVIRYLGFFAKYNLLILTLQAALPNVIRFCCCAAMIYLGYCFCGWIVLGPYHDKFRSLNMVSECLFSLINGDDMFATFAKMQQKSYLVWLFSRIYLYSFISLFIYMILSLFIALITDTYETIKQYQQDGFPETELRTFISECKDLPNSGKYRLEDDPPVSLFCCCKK

Ion channel NompC = Ion channel NompC (Danio rerio, UniProt Q7T1G6); test: Fluorescence counterscreen assay for TRPML3 agonists: dose response cell-based high-throughput screening assay to identify agonists of the transient receptor potential channel N1 (TRPN1). [Related pubchem assays: 1526, 1424, 1448 ]; format: functional
Chain of Ion channel NompC (Q7T1G6 whole entry): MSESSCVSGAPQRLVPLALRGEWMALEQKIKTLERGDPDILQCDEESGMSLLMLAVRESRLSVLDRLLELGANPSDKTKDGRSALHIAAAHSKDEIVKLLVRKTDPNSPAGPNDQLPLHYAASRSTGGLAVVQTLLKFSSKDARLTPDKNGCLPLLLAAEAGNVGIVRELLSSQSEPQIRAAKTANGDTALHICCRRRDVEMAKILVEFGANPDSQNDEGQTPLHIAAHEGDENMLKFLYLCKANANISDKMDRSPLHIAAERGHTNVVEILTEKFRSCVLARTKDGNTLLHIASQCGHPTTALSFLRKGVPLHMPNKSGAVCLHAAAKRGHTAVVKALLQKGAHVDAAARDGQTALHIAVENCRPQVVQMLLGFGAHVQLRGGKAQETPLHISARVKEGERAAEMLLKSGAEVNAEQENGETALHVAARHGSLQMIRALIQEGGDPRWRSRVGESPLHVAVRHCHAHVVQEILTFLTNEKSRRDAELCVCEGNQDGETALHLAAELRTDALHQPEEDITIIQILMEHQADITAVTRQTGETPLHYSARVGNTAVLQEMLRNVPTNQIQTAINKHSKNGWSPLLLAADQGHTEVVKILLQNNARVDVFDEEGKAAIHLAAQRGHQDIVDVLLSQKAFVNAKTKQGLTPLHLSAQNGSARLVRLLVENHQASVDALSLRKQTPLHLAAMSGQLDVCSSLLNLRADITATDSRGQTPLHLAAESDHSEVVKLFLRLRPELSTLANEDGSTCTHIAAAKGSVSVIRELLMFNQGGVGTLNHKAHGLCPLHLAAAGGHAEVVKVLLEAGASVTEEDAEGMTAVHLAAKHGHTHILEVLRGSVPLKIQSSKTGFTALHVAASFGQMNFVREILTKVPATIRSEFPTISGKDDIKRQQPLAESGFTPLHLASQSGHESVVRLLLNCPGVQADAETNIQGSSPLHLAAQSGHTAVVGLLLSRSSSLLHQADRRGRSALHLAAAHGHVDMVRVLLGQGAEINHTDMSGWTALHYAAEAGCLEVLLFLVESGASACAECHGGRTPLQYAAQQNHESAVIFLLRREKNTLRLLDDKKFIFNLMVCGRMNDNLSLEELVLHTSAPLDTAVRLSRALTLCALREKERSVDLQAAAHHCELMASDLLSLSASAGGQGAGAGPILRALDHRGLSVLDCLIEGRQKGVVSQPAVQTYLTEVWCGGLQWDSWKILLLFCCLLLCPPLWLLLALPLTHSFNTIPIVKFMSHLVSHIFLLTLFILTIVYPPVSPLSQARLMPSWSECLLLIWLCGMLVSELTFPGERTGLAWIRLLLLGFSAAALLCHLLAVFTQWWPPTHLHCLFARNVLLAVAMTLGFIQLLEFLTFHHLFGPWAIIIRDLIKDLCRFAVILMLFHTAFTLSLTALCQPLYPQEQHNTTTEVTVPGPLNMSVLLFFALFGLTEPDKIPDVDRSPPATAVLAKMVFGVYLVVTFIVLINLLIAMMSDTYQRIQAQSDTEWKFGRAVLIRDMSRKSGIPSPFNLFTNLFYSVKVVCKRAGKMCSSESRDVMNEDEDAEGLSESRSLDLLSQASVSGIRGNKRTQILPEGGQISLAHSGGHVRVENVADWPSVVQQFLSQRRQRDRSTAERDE

T2 sequence (P65502 whole entry): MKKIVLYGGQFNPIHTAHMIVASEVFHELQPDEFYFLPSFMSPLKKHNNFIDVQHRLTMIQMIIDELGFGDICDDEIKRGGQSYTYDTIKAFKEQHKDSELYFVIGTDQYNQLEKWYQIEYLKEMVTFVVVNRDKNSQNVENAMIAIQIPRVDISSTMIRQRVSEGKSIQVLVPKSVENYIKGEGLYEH
Chain of Kallikrein-7 (P49862 whole entry): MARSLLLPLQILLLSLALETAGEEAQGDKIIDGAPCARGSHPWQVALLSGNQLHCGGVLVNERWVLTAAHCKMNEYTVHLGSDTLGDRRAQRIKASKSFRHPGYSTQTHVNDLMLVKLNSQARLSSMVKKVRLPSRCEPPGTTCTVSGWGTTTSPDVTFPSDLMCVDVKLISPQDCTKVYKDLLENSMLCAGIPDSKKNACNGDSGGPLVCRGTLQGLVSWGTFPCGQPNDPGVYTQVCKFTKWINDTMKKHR
Chain of Beta-galactosidase (Q8VNN2 whole entry): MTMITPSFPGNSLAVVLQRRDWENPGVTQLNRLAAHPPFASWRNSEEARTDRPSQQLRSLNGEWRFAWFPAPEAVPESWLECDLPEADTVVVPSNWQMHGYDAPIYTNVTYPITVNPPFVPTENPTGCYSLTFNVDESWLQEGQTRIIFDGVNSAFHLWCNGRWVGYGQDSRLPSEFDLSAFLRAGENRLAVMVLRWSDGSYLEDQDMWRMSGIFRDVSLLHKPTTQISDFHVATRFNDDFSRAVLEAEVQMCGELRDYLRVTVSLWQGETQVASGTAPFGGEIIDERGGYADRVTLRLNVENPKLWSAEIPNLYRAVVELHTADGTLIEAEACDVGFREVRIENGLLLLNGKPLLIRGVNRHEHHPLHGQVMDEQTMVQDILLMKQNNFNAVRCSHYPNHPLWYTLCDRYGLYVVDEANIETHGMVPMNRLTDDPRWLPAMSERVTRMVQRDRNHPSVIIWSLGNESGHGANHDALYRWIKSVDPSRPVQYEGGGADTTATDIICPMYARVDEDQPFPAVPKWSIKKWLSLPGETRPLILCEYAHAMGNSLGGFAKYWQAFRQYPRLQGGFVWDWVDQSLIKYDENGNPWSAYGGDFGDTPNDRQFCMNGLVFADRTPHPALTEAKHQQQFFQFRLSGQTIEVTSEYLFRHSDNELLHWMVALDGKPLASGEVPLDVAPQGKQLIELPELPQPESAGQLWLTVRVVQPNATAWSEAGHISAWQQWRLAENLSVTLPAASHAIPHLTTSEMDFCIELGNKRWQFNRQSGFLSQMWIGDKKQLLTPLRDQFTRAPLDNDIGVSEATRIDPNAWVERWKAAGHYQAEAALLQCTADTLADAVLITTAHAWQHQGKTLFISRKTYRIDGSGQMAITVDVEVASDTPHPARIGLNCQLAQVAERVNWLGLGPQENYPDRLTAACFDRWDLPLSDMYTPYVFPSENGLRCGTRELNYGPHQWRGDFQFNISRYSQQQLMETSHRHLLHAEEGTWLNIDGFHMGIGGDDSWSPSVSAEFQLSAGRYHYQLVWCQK

Compound: Cc1cccn2c(=O)c3cc(C(=O)NC4CCS(=O)(=O)C4)sc3nc12 (stereo not drawn)
- EC50 (Kallikrein-7): 25.1 µM (inactive)

Compound: CC1CCCCC1NC(=O)CSc1nnc(-c2ccccc2)n1N (stereo not drawn)
- IC50 (Aminopeptidase N): 46.8 µM (active)

Compound: Cc1c([N+](=O)[O-])cc(N2C(=O)C=CC2=O)cc1[N+](=O)[O-]
- IC50 (Beta-galactosidase): > 66.6 µM (inactive)
- IC50 [1]: 3.77 µM (active)
- IC50 [2]: 6.33 µM (active)

Compound: O=C1CN(C(=O)COC(=O)c2ccc([N+](=O)[O-])o2)c2ccccc2N1
- AC50 (Caspase-6): 15.1 µM (active)

Compound: CN(C)/C=N/c1ncc(C(=O)c2ccc(Cl)cc2)s1
- EC50 [3]: > 50 µM (active)

Compound: OC[C@@H]1[C@H](c2ccc(C3=CCCC3)cc2)[C@@H](CNC2CCCC2)N1CC1CC1
- AC50 [4]: 1.2 µM (active)
- AC50 [5]: 21.1 µM (active)
- AC50 [6]: 1.52 µM (active)
- AC50 [7]: 0.843 µM (active)
- AC50 [8]: 0.78 µM (active)

Compound: COc1ccc(C2=NN3C(C2)c2ccccc2OC3c2cccs2)cc1 (stereo not drawn)
- EC50 [3]: > 50 µM (active)

Compound: CC(=O)Nc1ccc(C2Nc3ccccc3C(=O)N2C2CCCCC2)cc1 (stereo not drawn)
- EC50 (Kallikrein-7): > 69.5 µM (inactive)

Compound: Cc1cccc(CC2CC(=O)N(C3CCCCC3)C2=O)c1 (stereo not drawn)
- EC50 (Mucolipin-3): 3.41 µM (active)
- EC50 (Ion channel NompC): > 29.9 µM (not active)

Compound: CC1CCCC(C)N1C(=O)CN1CCN(c2nc(-c3ccc(F)cc3)cs2)CC1 (stereo not drawn)
- EC50 (Mucolipin-3): 27.4 µM (not active)
- EC50 (Ion channel NompC): > 29.9 µM (not active)
